Values quoted from earlier work in patent US20250049666A1, “LIQUID COMPOSITION HAVING ENHANCED ANTIMICROBIAL ACTIVITY” (Conopco Inc., d/b/a UNILEVER, priority 2021, published 2025).

## CCCCCCCC(=O)O [Caprylic acid]
  pKa: 4.72

## Capryloyl salicylic acid
  pKa: acid (pKa = 3.83, log
octanol/water
  log P: P = 4.83)
